# Values of other authors, collected in article PMC8018653, “Gender-based differences in brain and plasma pharmacokinetics of letrozole in sprague-dawley rats: Application of physiologically-based pharmacokinetic modeling to gain quantitative insights” (PLoS ONE, 2021).
# Test system: P-glycoprotein (P-gp)
# Conditions: cited from earlier work
smiles,measurement,value
N#Cc1ccc(C(c2ccc(C#N)cc2)n2cncn2)cc1 [letrozole],substrate for the efflux transporter P-glycoprotein (P-gp),not a substrate
